Drawing on article PMC10935098 (Molecules, 2024), this text covers MIC for one compound.

Experiment [1] relates to Candida tropicalis (BNCC340288). The experiment can be described thus: microbe, parasite or virus in culture. The note with it: 24 h, read-out: MIC, C. tropical.
Experiment [2] concerns Candida parapsilosis (BNCC336015). The experiment can be described thus: microbe, parasite or virus in culture. The note with it: Lodderomyces parapsilosis, 24 h, read-out: MIC, C. parapsilosis.

≈ marks a conversion by molar mass, not a printed value.

As to `Clc1ccccc1C(c1ccccc1)(c1ccccc1)n1ccnc1` [clotrimazole], the figures for the MIC in experiment [1] and in experiment [2] were 12.5 µM (≈ 4.31 µg/mL) and 25 µM (≈ 8.62 µg/mL), respectively.
